By inhibition is commonly meant how much of the control response was suppressed. What is called Cmax is the peak of the concentration-time curve. A word on the Tmax: it is the time from dosing to the highest level. The term AUC(0-t) denotes the area under the concentration-time curve up to a stated or last time point. The half-life is the time in which the quantity being followed falls by half. A higher half-life goes with slow decline. As usually defined, the AUC(0-inf) is the area under the concentration-time curve extrapolated to infinity. Read a high AUC(0-inf) as more exposure.

From ChEMBL document CHEMBL6121038, “Design and Synthesis of Hederagenin Derivatives for the Treatment of Sepsis by Targeting TAK1 and Regulating the TAK1-NF-κB/MAPK Signaling” (J Med Chem, 2025) come the findings set out here.

The test system of series [1] is RAW264.7. In words: Cytotoxicity against mouse RAW264.7 cells assessed as cell viability at 40 uM measured after 24 hrs by MTT assay. Particulars: raw264.7, 24 h. The series is classed as toxicity, cell-based. Background: Tetrazolium dyes change colour on reduction, which living cells bring about.
Series [2] deals with RAW264.7. In words: Antiinflammatory activity in LPS-induced mouse RAW264.7 cells assessed as inhibition of IL-6 level at 20 uM incubated for 24 hrs by ELISA method relative to control. The format is functional.
Series [3] concerns RAW264.7. In words: Antiinflammatory activity in LPS-induced mouse RAW264.7 cells assessed as inhibition of TNF-alpha level at 20 uM incubated for 24 hrs by ELISA method relative to control. The format is functional. In general terms: ELISA stands for enzyme-linked immunosorbent assay.
Series [4] is described as follows: Cmax in BALB/c mouse at 10 mg/kg, po measured upto 24 hrs by LC/MS-MS analysis. Particulars: in vivo. The format is ADME, organism-based.
Series [5] in a line: Tmax in BALB/c mouse at 10 mg/kg, po measured upto 24 hrs by LC/MS-MS analysis. The series is classed as ADME, organism-based. The note with it: in vivo.
Series [6] can be described thus: AUC (0 to t) in BALB/c mouse at 10 mg/kg, po measured upto 24 hrs by LC/MS-MS analysis. The format is ADME, organism-based. The note with it: in vivo.
The nature of series [7]: Half life in BALB/c mouse at 10 mg/kg, po measured upto 24 hrs by LC/MS-MS analysis. The series is classed as ADME, organism-based. The note with it: in vivo.
Series [8] in a line: AUC (0 to infinity) in BALB/c mouse at 10 mg/kg, po measured upto 24 hrs by LC/MS-MS analysis. The series is classed as ADME, organism-based. Particulars: in vivo.
Series [9] in a line: Toxicity in BALB/c mouse assessed as histopathological lesions in lung at 10 mg/kg, po by H and E staining based analysis. The series is classed as organism-based. Particulars: in vivo.

In the case of `CCOC(=O)c1noc2c1C[C@@]1(C)[C@@H](CC[C@]3(C)[C@@H]1CC=C1[C@@H]4CC(C)(C)CC[C@]4(C(=O)OCc4ccccc4)CC[C@]13C)[C@]2(C)COC(=O)CCc1c[nH]c2ccccc12`, the Activity entry in the series with RAW264.7 [1] is recorded as “Non-toxic”. The inhibition at 20 µM stood at 18.9% in the series with RAW264.7 [2] and 15.8% in the series on RAW264.7 [3].
As to `CCOC(=O)c1noc2c1C[C@@]1(C)[C@@H](CC[C@]3(C)[C@@H]1CC=C1[C@@H]4CC(C)(C)CC[C@]4(C(=O)OCc4ccccc4)CC[C@]13C)[C@]2(C)COC(=O)CCC(=O)N[C@@H](CC(C)C)C(=O)OC`, the Activity entry in the series on RAW264.7 [1] was “Non-toxic”. For the same compound, the inhibition at 20 µM was found to be 25.7% in the series with RAW264.7 [2] and 33.1% in the series on RAW264.7 [3].
With `CCOC(=O)c1noc2c1C[C@@]1(C)[C@@H](CC[C@]3(C)[C@@H]1CC=C1[C@@H]4CC(C)(C)CC[C@]4(C(=O)OCc4ccccc4)CC[C@]13C)[C@]2(C)COC(=O)CCC(=O)N1CCN(C(C)C)CC1`, the Activity entry in the series with RAW264.7 [1] was “Non-toxic”. Besides, the inhibition at 20 µM in the series with RAW264.7 [2] turned out to be 68.6%; in the series with RAW264.7 [3], 78.1%.
With `CCOC(=O)c1noc2c1C[C@@]1(C)[C@@H](CC[C@]3(C)[C@@H]1CC=C1[C@@H]4CC(C)(C)CC[C@]4(C(=O)OCc4ccccc4)CC[C@]13C)[C@]2(C)COC(=O)[C@H](Cc1ccccc1)NC(=O)OC(C)(C)C`, the Activity result in the series with RAW264.7 [1] was “Non-toxic”. Besides, the inhibition at 20 µM worked out at 44.9% in the series with RAW264.7 [2] and 59.3% in the series with RAW264.7 [3].
In turn, `CC1(C)CC[C@]2(C(=O)OCc3ccccc3)CC[C@]3(C)C(=CC[C@@H]4[C@@]5(C)Cc6c(C(=O)O)noc6[C@@](C)(CO)[C@@H]5CC[C@]43C)[C@@H]2C1` gave a Cmax in series [4] of 285 ng/mL. Further, the Tmax in series [5] came to 3 h. In series [6], this compound yielded an exposure AUC(0-t) at 24 h of 2580 ng·h/mL. The half-life in [7] was 5.54 h. The area under the curve AUC(0-inf) in series [8] is 2720 ng·h/mL.
Regarding `CCOC(=O)c1noc2c1C[C@@]1(C)[C@@H](CC[C@]3(C)[C@@H]1CC=C1[C@@H]4CC(C)(C)CC[C@]4(C(=O)OCc4ccccc4)CC[C@]13C)[C@]2(C)COC(=O)CCC(=O)N[C@H](CCSC)C(=O)OC`, the Activity result in the series on RAW264.7 [1] is recorded as “Non-toxic”. The figures for the inhibition at 20 µM in the series on RAW264.7 [2] and in the series with RAW264.7 [3] were 44.6% and 52.2%, respectively.
For the compound `CCOC(=O)c1noc2c1C[C@@]1(C)[C@@H](CC[C@]3(C)[C@@H]1CC=C1[C@@H]4CC(C)(C)CC[C@]4(C(=O)OCc4ccccc4)CC[C@]13C)[C@]2(C)COC(=O)c1ccccc1C(=O)N[C@@H](CCC(=O)OC)C(=O)OC`, the Activity result in the series with RAW264.7 [1] is on record as “Non-toxic”. The inhibition at 20 µM was 8.65% in the series on RAW264.7 [2] and 14.8% in the series with RAW264.7 [3].
For `CCOC(=O)c1noc2c1C[C@@]1(C)[C@@H](CC[C@]3(C)[C@@H]1CC=C1[C@@H]4CC(C)(C)CC[C@]4(C(=O)OCc4ccccc4)CC[C@]13C)[C@]2(C)COC(=O)c1cnccn1`, in that order: “Non-toxic”, 5.92% and 8.27%.
As for `CCOC(=O)c1noc2c1C[C@@]1(C)[C@@H](CC[C@]3(C)[C@@H]1CC=C1[C@@H]4CC(C)(C)CC[C@]4(C(=O)OCc4ccccc4)CC[C@]13C)[C@]2(C)COC(=O)CCC(=O)N[C@@H](Cc1ccccc1)C(=O)OC`, the Activity entry in the series with RAW264.7 [1] is “Non-toxic”. Moreover, the inhibition at 20 µM in the series on RAW264.7 [2] worked out at 25%; in the series on RAW264.7 [3], 31.7%.
With `CCOC(=O)c1noc2c1C[C@@]1(C)[C@@H](CC[C@]3(C)[C@@H]1CC=C1[C@@H]4CC(C)(C)CC[C@]4(C(=O)OCc4ccccc4)CC[C@]13C)[C@]2(C)COC(=O)CCn1cccc1`, in the series on RAW264.7 [1], the Activity entry is on record as “Non-toxic”. For the same compound, the inhibition at 20 µM in the series on RAW264.7 [2] amounted to 46.2%; in the series with RAW264.7 [3], 52.5%.
Turning to `CCOC(=O)c1noc2c1C[C@@]1(C)[C@@H](CC[C@]3(C)[C@@H]1CC=C1[C@@H]4CC(C)(C)CC[C@]4(C(=O)OCc4ccccc4)CC[C@]13C)[C@]2(C)COC(=O)CCC(=O)N1CCN(CC)CC1`, the Activity entry in the series with RAW264.7 [1] is on record as “Non-toxic”. Besides, the figures for the inhibition at 20 µM in the series on RAW264.7 [2] and in the series with RAW264.7 [3] were 66.3% and 75.4%, respectively.
Take `C[C@@H]1C[C@H]2[C@@H]3CCC4=CC(=O)C=C[C@]4(C)[C@@]3(F)[C@@H](O)C[C@]2(C)[C@@]1(O)C(=O)CO` [DEXAMETHASONE]: the inhibition at 20 µM with RAW264.7 [2] was 73.5%; in the series on RAW264.7 [3], 80.7%. Moreover, the Activity result in series [9] is given as “Non-toxic”.
For `CCOC(=O)c1noc2c1C[C@@]1(C)[C@@H](CC[C@]3(C)[C@@H]1CC=C1[C@@H]4CC(C)(C)CC[C@]4(C(=O)OCc4ccccc4)CC[C@]13C)[C@]2(C)COC(=O)CCSSCCC(=O)N[C@@H](CC(=O)OC)C(=O)OC`, the Activity result with RAW264.7 [1] was “Non-toxic”. The inhibition at 20 µM in the series on RAW264.7 [2] came to 6.08%; in the series on RAW264.7 [3], 7.53%.
As for `CCOC(=O)c1noc2c1C[C@@]1(C)[C@@H](CC[C@]3(C)[C@@H]1CC=C1[C@@H]4CC(C)(C)CC[C@]4(C(=O)OCc4ccccc4)CC[C@]13C)[C@]2(C)COC(=O)CCC(=O)N[C@@H](CC(=O)OC)C(=O)OC`, the Activity result with RAW264.7 [1] is on record as “Non-toxic”. Also, the inhibition at 20 µM worked out at 37.6% with RAW264.7 [2] and 54.3% with RAW264.7 [3].
For `CCOC(=O)c1noc2c1C[C@@]1(C)[C@@H](CC[C@]3(C)[C@@H]1CC=C1[C@@H]4CC(C)(C)CC[C@]4(C(=O)OCc4ccccc4)CC[C@]13C)[C@]2(C)COC(=O)[C@H](CC(C)C)NC(=O)OC(C)(C)C`, in that order: “Non-toxic”, 4.25% and 7.45%.
With `CC1(C)CC[C@]2(C(=O)OCc3ccccc3)CC[C@]3(C)C(=CC[C@@H]4[C@@]5(C)Cc6c(C(=O)O)noc6[C@@](C)(COC(=O)CCC(=O)N6CCOCC6)[C@@H]5CC[C@]43C)[C@@H]2C1`, the peak concentration (Cmax) in [4] is 209 ng/mL. In addition, in series [5], the Tmax came out at 1.5 h. The same compound gave an area under the curve AUC(0-t) at 24 h in series [6] of 1290 ng·h/mL. Moreover, the half-life in series [7] was 4.49 h. Also, in series [8], the total exposure AUC(0-inf) turned out to be 2020 ng·h/mL.
As for `CCOC(=O)c1noc2c1C[C@@]1(C)[C@@H](CC[C@]3(C)[C@@H]1CC=C1[C@@H]4CC(C)(C)CC[C@]4(C(=O)OCc4ccccc4)CC[C@]13C)[C@]2(C)COC(=O)CCC(=O)N1CCCCC1`, the Activity entry in the series on RAW264.7 [1] is given as “Non-toxic”. Moreover, the inhibition at 20 µM stood at 50.6% in the series on RAW264.7 [2] and 61% in the series on RAW264.7 [3].
For `CCOC(=O)c1noc2c1C[C@@]1(C)[C@@H](CC[C@]3(C)[C@@H]1CC=C1[C@@H]4CC(C)(C)CC[C@]4(C(=O)OCc4ccccc4)CC[C@]13C)[C@]2(C)COC(=O)c1ccccc1C(=O)N1CCN(C(C)C)CC1`, in that order: “Non-toxic”, 11.4% and 22.9%.
For the compound `CCOC(=O)c1noc2c1C[C@@]1(C)[C@@H](CC[C@]3(C)[C@@H]1CC=C1[C@@H]4CC(C)(C)CC[C@]4(C(=O)OCc4ccccc4)CC[C@]13C)[C@]2(C)COC(=O)CCSSCCC(=O)N1CCN(CC)CC1`, the inhibition at 20 µM was 26.8% in the series on RAW264.7 [2] and 22.7% in the series on RAW264.7 [3].
Consider `CCOC(=O)c1noc2c1C[C@@]1(C)[C@@H](CC[C@]3(C)[C@@H]1CC=C1[C@@H]4CC(C)(C)CC[C@]4(C(=O)OCc4ccccc4)CC[C@]13C)[C@]2(C)COC(=O)[C@H](CCSC)NC(=O)OC(C)(C)C`, for which, in the series on RAW264.7 [1], the Activity entry is given as “Non-toxic”. Also, the figures for the inhibition at 20 µM with RAW264.7 [2] and in the series on RAW264.7 [3] were 11.7% and 15.3%, respectively.
`CCOC(=O)c1noc2c1C[C@@]1(C)[C@@H](CC[C@]3(C)[C@@H]1CC=C1[C@@H]4CC(C)(C)CC[C@]4(C(=O)OCc4ccccc4)CC[C@]13C)[C@]2(C)COC(=O)c1cc2ccccc2[nH]1`: in the series with RAW264.7 [1], the Activity entry is “Non-toxic”. For the same compound, the inhibition at 20 µM with RAW264.7 [2] came out at 15%; in the series on RAW264.7 [3], 9.1%.
For the compound `CCOC(=O)c1noc2c1C[C@@]1(C)[C@@H](CC[C@]3(C)[C@@H]1CC=C1[C@@H]4CC(C)(C)CC[C@]4(C(=O)OCc4ccccc4)CC[C@]13C)[C@]2(C)COC(=O)CCC(=O)N[C@@H](CCC(=O)OC)C(=O)OC`, the Activity result in the series with RAW264.7 [1] is “Non-toxic”. Moreover, the inhibition at 20 µM was 22% in the series on RAW264.7 [2] and 33.6% in the series on RAW264.7 [3].
For `CCOC(=O)c1noc2c1C[C@@]1(C)[C@@H](CC[C@]3(C)[C@@H]1CC=C1[C@@H]4CC(C)(C)CC[C@]4(C(=O)OCc4ccccc4)CC[C@]13C)[C@]2(C)COC(=O)[C@H](CCC(=O)OC)NC(=O)OC(C)(C)C`, in that order: “Non-toxic”, 55.4% and 60%.
With `CCOC(=O)c1noc2c1C[C@@]1(C)[C@@H](CC[C@]3(C)[C@@H]1CC=C1[C@@H]4CC(C)(C)CC[C@]4(C(=O)OCc4ccccc4)CC[C@]13C)[C@]2(C)COC(=O)CCSSCCC(=O)N1CCCCC1`, the Activity result in the series with RAW264.7 [1] is recorded as “Non-toxic”. For the same compound, the inhibition at 20 µM was found to be 24.5% in the series with RAW264.7 [2] and 14.2% in the series with RAW264.7 [3].
